Measurements published in patent publication US7858640B2, “Quinolines and their therapeutic use” (Pulmagen Therapeutics (Asthma) Limited, priority 2005, dated 2010).

Experiments:
CRTH2 receptor [1] = target: T1, CRTH2 receptor (Homo sapiens, UniProt Q9Y5Y4); assay: Radioligand binding assay ([3H]-PGD2 displacement, SPA); set-up: expressed in transfected cells; host or cells: HEK cell membranes; conditions: HEK cell membranes expressing the CRTH2 receptor, 1 nM [3H]-PGD2; Ki from IC50 by Cheng-Prusoff
T1 sequence (Q9Y5Y4 1-395): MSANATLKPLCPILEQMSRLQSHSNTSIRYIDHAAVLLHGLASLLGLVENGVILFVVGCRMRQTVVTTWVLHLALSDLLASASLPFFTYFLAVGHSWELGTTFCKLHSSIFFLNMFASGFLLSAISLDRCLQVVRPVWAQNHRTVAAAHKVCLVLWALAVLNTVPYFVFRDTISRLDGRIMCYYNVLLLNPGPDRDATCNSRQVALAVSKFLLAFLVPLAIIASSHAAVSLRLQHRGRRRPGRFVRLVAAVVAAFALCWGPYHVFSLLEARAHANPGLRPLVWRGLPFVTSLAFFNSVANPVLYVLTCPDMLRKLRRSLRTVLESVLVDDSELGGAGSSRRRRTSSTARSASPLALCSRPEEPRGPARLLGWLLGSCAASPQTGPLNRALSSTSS
Protocol: Radioligand Binding Assay
The receptor binding assay is performed in a final volume of 200 μL binding buffer [10 mM BES (pH 7.4), 1 mM EDTA, 10 mM manganese chloride, 0.01% BSA] and 1 nM [^3H]-PGD2 (Amersham Biosciences UK Ltd). Ligands are added in assay buffer containing a constant amount of DMSO (1% by volume). Total binding is determined using 1% by volume of DMSO in assay buffer and non-specific binding is determined using 10 μM of unlabeled PGD2 (Sigma). Human embryonic kidney (HEK) cell membranes (3.5 μg) expressing the CRTH2 receptor are incubated with 1.5 mg wheatgerm agglutinin SPA beads and 1 nM [^3H]-PGD2 (Amersham Biosciences UK Ltd) and the mixture incubated for 3 hours at room temperature. Bound [^3H]-PGD2 is detected using a Microbeta TRILUX liquid scintillation counter (Perkin Elmer). Compound IC50 value is determined using a 6-point dose response curve in duplicate with a semi-log compound dilution series. IC50 calculations are performed using Excel and XLfit (Microsoft), and this value is used to determine a Ki value for the test compound using the Cheng-Prusoff equation.

CRTH2 receptor [2] = target: T1, CRTH2 receptor; assay: Functional assay: calcium mobilisation; format: cell-based; set-up: expressed in transfected cells; conditions: CHO-K1 cells co-expressing CRTH2 receptor and Gα16; antagonism of PGD2 at its EC80
Protocol: Functional Assay: Calcium Mobilisation
Stable CHO-K1 cells co-expressing the CRTH2 receptor and the G-protein Gα16 are seeded (40,000 cells per well in a plating volume of 75 μL in F-12 Hams supplemented with 1% foetal bovine serum) into collagen-coated 96-well, plates 24 hours prior to the assay. The cells are then loaded with a fluorescence-imaging plate reader (FLIPR) calcium kit dye (Calcium 3 kit, Molecular Devices Ltd) containing 5 mM final concentration of probenecid and incubated at 37° C. for 1 hour in a 5% CO2 atmosphere. The fluorescence emission caused by intracellular calcium mobilization elicited by the PGD2 at the CRTH2 receptor is determined with a FLEXstation benchtop scanning and integrated fluid transfer workstation (Molecular Devices Ltd). To detect antagonists and determine compound IC50, compounds are pre-incubated at varying concentrations with the loaded cells for 15 minutes at 37° C., 5% CO2, prior to the addition of the agonist at its EC80 value. Compounds and agonist are added in Hanks balanced salt solution containing 20 mM HEPES and 0.1% BSA). The fractional response values for each well are calculated by subtracting the basal response from the peak response. Results are calculated as the mean of triplicate wells using Excel and XLfit (Microsoft).

| Ki (CRTH2 receptor [1]) | IC50 (CRTH2 receptor [2]) | Structure (SMILES) |
| --- | --- | --- |
| < 100 nM | < 100 nM | Cc1nc2c(Cl)ccc(CC(=O)O)c2c(C)c1Sc1ccc(Cl)cc1 [Example 12, [8-chloro-3-(4-chlorophenylsulfanyl)-2,4-dimethylquinolin-5-yl]acetic Acid] |
| < 100 nM | < 100 nM | Cc1nc2c(Cl)ccc(OCC(=O)O)c2c(OC(F)F)c1Cc1ccc(F)cc1 [Example 18, [8-chloro-4-difluoromethoxy-3-(4-fluorobenzyl)-2-methylquinolin-5-yloxy]acetic acid] |
| < 100 nM |  | Cc1c(Cc2ccc(Cl)cc2)c(OC(F)F)nc2c(Cl)ccc(OC(C)C(=O)O)c12 (stereo not drawn) [Example 69, 2-[8-chloro-3-(4-chlorobenzyl)-2-difluoromethoxy-4-methylquinolin-5-yloxy]propionic Acid] |
| < 10000 nM |  | Cc1c(Cc2ccc(Cl)cc2)c(OC(F)F)nc2c(Cl)ccc(OC(C)(C)C(=O)O)c12 [Example 66, 2-[8-chloro-3-(4-chlorobenzyl)-2-difluoromethoxy-4-methylquinolin-5-yloxy]-2-methylpropionic Acid] |

The next lines start with the compound.

| Structure (SMILES) | Ki (CRTH2 receptor [1]) | IC50 (CRTH2 receptor [2]) |
| --- | --- | --- |
| Cc1nc2c(Cl)ccc(OCC(=O)O)c2c(C)c1Cc1ccc(S(C)(=O)=O)cc1 [Example 20, [8-chloro-3-(4-methanesulfonylbenzyl)-2,4-dimethylquinolin-5-yloxy]acetic Acid] | < 100 nM | < 1000 nM |
| Cc1nc2c(Cl)ccc(-c3nnn[nH]3)c2c(C)c1Cc1ccc(Cl)cc1 [Example 42, 8-chloro-3-(4-chlorobenzyl)-2,4-dimethyl-5-(1H-tetrazol-5-yl)quinoline] | < 10000 nM | < 1000 nM |
| Cc1nc2c(Cl)ccc(CC(=O)O)c2c(C)c1Oc1ccc(Cl)cc1 [Example 15, [8-chloro-3-(4-chlorophenoxy)-2,4-dimethylquinolin-5-yl]acetic Acid] | < 100 nM |  |
| Cc1c(Cc2ccc(F)cc2Cl)c(OC(F)F)nc2c(F)ccc(OCC(=O)O)c12 [Example 59, [3-(2-chloro-4-fluorobenzyl)-2-difluoromethoxy-8-fluoro-4-methylquinolin-5-yloxy]acetic Acid] | < 100 nM |  |
| Cc1nc2c(Cl)ccc(OCC(=O)O)c2c(OC(C)C)c1Cc1ccc(F)cc1 [Example 32, [8-chloro-3-(4-fluorobenzyl)-4-isopropoxy-2-methylquinolin-5-yloxy]acetic Acid] | < 1000 nM |  |
| Cc1nc2c(Cl)ccc(OCc3nnn[nH]3)c2c(C)c1Cc1ccc(Cl)cc1 [Example 23, 8-chloro-3-(4-chlorobenzyl)-2,4-dimethyl-5-(1H-tetrazol-5-ylmethoxy)quinoline] | < 10000 nM |  |
| Cc1nc2c(F)ccc(OCC(=O)O)c2c(OC(F)F)c1Cc1ccc(Cl)cc1 [Example 27, [3-(4-chlorobenzyl)-4-difluoromethoxy-8-fluoro-2-methylquinolin-5-yloxy]acetic acid] | < 100 nM |  |
